# According to patent US20190231757A1, “COMBINATION OF SPLEEN TYROSINE KINASE INHIBITORS AND OTHER THERAPEUTIC AGENTS” (Takeda Pharmaceutical Company Limited, priority 2016, published 2019):
# Columns and labels:
# Format in all cases: in vivo, mouse
# [1] = system: Ly19 human lymphoma xenografts; test: Antitumor activity in SCID mice bearing Ly19 xenografts, rituximab combination (Example 14); conditions: alone or combined
# [2] = system: OCI-Ly10 human lymphoma xenografts; test: Antitumor activity in SCID mice bearing OCI-Ly10 human lymphoma xenografts, bendamustine and rituximab (Example 6); conditions: Day 21; Compound A 30 mg/kg PO QD x21; bendamustine 1 mg/kg IV BIW; rituximab 1 mg/kg IV QW x3; alone or combined
# [3] = system: Ly10 human lymphoma xenografts; test: Antitumor activity in SCID mice bearing Ly10 xenografts, rituximab combination (Example 13); conditions: alone or combined
# [4] = Body weight and tolerability, OCI-LY10 gemcitabine study (Example 7)
# Procedure: (§1) Experimental design: Female CB17 SCID mice (Taconic Biosciences; weight at treatment start was 20 g) were inoculated subcutaneously in the flank (cell suspension) with 4.0×10^6 OCI-Ly10 cells. Tumor volume was calculated using the formula V=W^2×L/2, where V=volume, W=width and L=length of the tumor. When the mean tumor volume reached approximately 199 mm^3, the animals were randomized into 6 treatment groups (n=8/group). […] Tumor growth and body weight were measured twice per week. Tumor growth inhibition and body weight change were calculated on Day 21 of treatment.
# [5] = system: TMD8 DLBCL xenografts; test: Antitumor activity in CB17 SCID mice bearing TMD8 DLBCL xenografts, gemcitabine combination (Example 8); conditions: Day 14, alone or combined
# Procedure: Tumor growth inhibition was calculated on Day 14 of the study. The last measurement was taken on Day 40 of the study.
# as §1, with “19” for “20”, “5.0×10^6 TMD8” for “4.0×10^6 OCI-Ly10”, “cells. Tumor growth was monitored with vernier calipers.” for “cells.”, “215” for “199”, “into” for “into 6”, “14” for “21”
# (§2) Statistical analysis: The differences in the tumor growth trends over time between pairs of treatment groups were assessed using linear mixed effects regression models. These models account for the fact that each animal was measured at multiple time points. A separate model was fit for each comparison, and the areas under the curve (AUC) for each treatment group were calculated using the predicted values from the model. The percent decrease in AUC (dAUC) relative to the reference group was then calculated. […] Further details regarding pairwise comparisons are provided in the Example 2.
# (§3) Drug combinations were assessed for synergy using observed AUC values. The change in AUC relative to the control was calculated for both single agent treatment groups as well as the combination group. The interaction between the two compounds was then assessed by comparing the change in AUC observed in the combination group to the sum of the changes observed in both single agents. The results can be divided into four categories: synergistic, additive, sub-additive, and antagonistic. Further details regarding combination analysis are provided in the Example 2.
# (§4) Once a final analysis was selected, the tumor measurements observed on a date pre-specified by the researcher (typically the last day of treatment) were analyzed to assess tumor growth inhibition. For this analysis, a T/C ratio was calculated for each animal by dividing the tumor measurement for the given animal by the mean tumor measurement across all control animals. The T/C ratios across a treatment group were compared to the T/C ratios of the control group using a two-tailed Welch's t-test.
# [6] = system: TMD8 DLBCL xenografts; test: Antitumor activity in CB17 SCID mice bearing TMD8 DLBCL xenografts, ABT-199 or gemcitabine combination (Example 9); conditions: Day 14, alone or combined with Compound A; for TGI (%): Compound A 60 mg/kg PO QD, ABT-199 25 mg/kg PO QD, gemcitabine 5 mg/kg IP Q3D x4; for Mean Tumor Volume (mm^3) ± SEM / T/C: Compound A 60 mg/kg, ABT-199 25 mg/kg, gemcitabine 5 mg/kg
# Procedure: Tumor growth inhibition was calculated on Day 14 of the study. The last measurement was taken on Day 29 of the study.
# as §1, with “about 19” for “20”, “5.0×10^6 TMD8” for “4.0×10^6 OCI-Ly10”, “cells. Tumor growth was monitored with vernier calipers.” for “cells.”, “245” for “199”, “14” for “21”
# as §2
# as §3, with “analyses” for “analysis”
# as §4
# [7] = Body weight and tolerability, TMD8 gemcitabine study (Example 8); conditions: alone or combined
# Procedure: as §1, with “19” for “20”, “5.0×10^6 TMD8” for “4.0×10^6 OCI-Ly10”, “cells. Tumor growth was monitored with vernier calipers.” for “cells.”, “215” for “199”, “into” for “into 6”, “14” for “21”
# [8] = Body weight and tolerability, TMD8 ABT-199/gemcitabine study (Example 9); conditions: alone or combined with Compound A; for % BW Change (Day Maximum): Compound A 60 mg/kg PO QD 14 d, ABT-199 25 mg/kg PO QD 14 d, gemcitabine 5 mg/kg IP Q3D x4; for Number of animals removed: Compound A 60 mg/kg, ABT-199 25 mg/kg, gemcitabine 5 mg/kg
# Procedure: as §1, with “about 19” for “20”, “5.0×10^6 TMD8” for “4.0×10^6 OCI-Ly10”, “cells. Tumor growth was monitored with vernier calipers.” for “cells.”, “245” for “199”, “14” for “21”
# [9] = system: OCI-LY10 xenografts; test: Antitumor activity in CB17 SCID mice bearing OCI-LY10 xenografts, gemcitabine combination (Example 7); conditions: Day 21
# Procedure: Tumor growth inhibition was calculated on Day 21 of the study. The last measurement was taken on Day 42 of the study.
# as §1, §2
# as §3, with “analyses” for “analysis”
# as §4
# [10] = system: OCI-LY 10 xenografts; test: Antitumor activity in CB17 SCID mice bearing OCI-LY10 xenografts, ABT-199 combination (Example 11); conditions: Day 21
# Procedure: Tumor growth inhibition was calculated on Day 21 of the study. The last measurement was taken on Day 46 of the study.
# as §1, with “(Charles River Laboratories, about 21 g” for “(Taconic Biosciences; weight”, “start)” for “start was 20 g)”, “cells. Tumor growth was monitored with vernier calipers.” for “cells.”, “175” for “199”, “into” for “into 6”, “(n=5/group).” for “(n=8/group).”
# as §2
# as §3, with “analyses” for “analysis”
# as §4
# [11] = Body weight and tolerability, OCI-LY10 ABT-199 study (Example 11)
# Procedure: as §1, with “(Charles River Laboratories, about 21 g” for “(Taconic Biosciences; weight”, “start)” for “start was 20 g)”, “cells. Tumor growth was monitored with vernier calipers.” for “cells.”, “175” for “199”, “into” for “into 6”, “(n=5/group).” for “(n=8/group).”
# [12] = Body weight and tolerability, WSU-Luc ibrutinib study (Example 12); conditions: Compound A 60 mg/kg; ibrutinib 20 mg/kg; alone or combined
# Procedure: (§5) Tumor growth was monitored with vernier calipers. Tumor volume was calculated using the formula V=W^2×L/2, where V=volume, W=width and L=length of the tumor. When the mean tumor volume reached approximately 190 mm^3, the animals were randomized into treatment groups (n=8/group). […] Tumor growth and body weight were measured twice per week. Tumor growth inhibition and body weight change were calculated on Day 20 of treatment.
# [13] = system: OCI-Ly10 human DLBCL xenografts; test: Antitumor activity in SCID mice bearing OCI-Ly10 human DLBCL xenografts, ibrutinib or bendamustine combination (Example 5); conditions: Day 21, Compound A 60 mg/kg PO QD, ibrutinib 6 mg/kg PO QD, bendamustine 1 mg/kg IV BIW (6 doses), alone or combined with Compound A
# [14] = system: WSU-Luc human lymphoma xenografts; test: Antitumor activity in SCID mice bearing WSU-Luc human lymphoma xenografts, ibrutinib combination (Example 12); conditions: Day 20, alone or combined
# Procedure: The study ended on Day 20 of dosing.
# as §5
# Statistical analysis: The differences in the tumor growth trends over time between pairs of treatment groups were assessed using linear mixed effects regression models. These models account for the fact that each animal was measured at multiple time points. A separate model was fit for each comparison, and the areas under the curve (AUC) for each treatment group were calculated using the predicted values from the model. The percent decrease in AUC (dAUC) relative to the reference group was then calculated.
# The change in AUC relative to the control was calculated for both single agent treatment groups as well as the combination group. […] The results can be divided into four categories: synergistic, additive, sub-additive, and antagonistic.
# For this analysis, a T/C ratio was calculated for each animal by dividing the tumor measurement for the given animal by the mean tumor measurement across all control animals. The T/C ratios across a treatment group were compared to the T/C ratios of the control group using a two-tailed Welch's t-test.
# [15] = Day 14, Compound A 60 mg/kg PO QD x14, rituximab 10 mg/kg IV QW x2
# [16] = Day 21, Compound A 60 mg/kg PO QD x21, rituximab 1 mg/kg IV QW x3
# [17] = Compound A 60 mg/kg, gemcitabine 2.5 mg/kg, alone or combined
# [18] = gemcitabine 5 mg/kg, alone or with Compound A 60 mg/kg
# [19] = Compound A 60 mg/kg PO QD, gemcitabine 5 mg/kg IP Q3D x4
# [20] = Compound A 60 mg/kg, gemcitabine 5 mg/kg
# [21] = Compound A 60 mg/kg PO QD, gemcitabine 2.5 mg/kg IP Q3D, alone or combined
# [22] = gemcitabine 5 mg/kg IP Q3D, alone or with Compound A 60 mg/kg PO QD
# [23] = ABT-199 25 mg/kg, alone or with Compound A 60 mg/kg
# [24] = Compound A 60 mg/kg, ABT-199 12.5 mg/kg, alone or combined
# [25] = Compound A 60 mg/kg, ibrutinib 20 mg/kg
molecule,measurement,setting,value
rituximab,Mean Tumor Volume (mm^3) ± SEM at Day 14,[1]; [15],516.8 ± 113.3 mm^3
same,TGI (%),[1]; [15],79.5%
same,dAUC,"[1]; vs vehicle, Compound A 60 mg/kg, rituximab 10 mg/kg",61.8
same,TGI,[2],33.4%
same,Mean Tumor Volume (mm^3) ± SEM at Day 21,[3]; [16],301.8 ± 30.8 mm^3
same,TGI (%),[3]; [16],66.7%
same,dAUC,"[3]; vs vehicle, Compound A 60 mg/kg, rituximab 1 mg/kg",77.6
Nc1ccn([C@@H]2O[C@H](CO)[C@@H](O)C2(F)F)c(=O)n1 [gemcitabine],% BW Change (Day Maximum),"[4]; Compound A 60 mg/kg PO QD 21 d, gemcitabine 2.5 mg/kg IP Q3D (4 doses), alone or combined",7.5 (21) %
same,Number of animals removed,[4]; [17],0
same,% BW Change (Day Maximum),"[4]; gemcitabine 5 mg/kg IP Q3D (4 doses), alone or with Compound A 60 mg/kg PO QD",−1.4 (3) %
same,Number of animals removed,[4]; [18],0
same,Mean Tumor Volume (mm^3) ± SEM,[5]; [19],294.7 ± 36.5 mm^3
same,TGI (%),[5]; [19],67.1%
same,T/C,[5]; [20],0.33
same,TGI (%),[6],70.3%
same,Mean Tumor Volume (mm^3) ± SEM,[6],440.2 ± 70.9 mm^3
same,T/C,[6],0.30
same,% BW Change (Day Maximum),"[7]; Compound A 60 mg/kg PO QD 14 d, gemcitabine 5 mg/kg IP Q3D x4",−0.1 (4) %
same,Number of animals removed,[7]; [20],0
same,% BW Change (Day Maximum),[8],−0.2 (11) %
same,Number of animals removed,[8],0
same,Mean Tumor Volume (mm^3) ± SEM,[9]; [21],561.7 ± 52.5 mm^3
same,TGI (%),[9]; [21],52.6%
same,T/C,[9]; [17],0.47
same,Mean Tumor Volume (mm^3) ± SEM,[9]; [22],331.3 ± 57.6 mm^3
same,TGI (%),[9]; [22],72.1%
same,T/C,[9]; [18],0.28
"CC1(C)CCC(CN2CCN(c3ccc(C(=O)NS(=O)(=O)c4ccc(NCC5CCOCC5)c([N+](=O)[O-])c4)c(Oc4cnc5[nH]ccc5c4)c3)CC2)=C(c2ccc(Cl)cc2)C1 [ABT-199, venetoclax]",TGI (%),"[10]; ABT-199 25 mg/kg PO QD, alone or with Compound A 60 mg/kg PO QD",9.2%
same,Mean Tumor Volume (mm^3) ± SEM,[10]; [23],950.3 ± 182.1 mm^3
same,T/C,[10]; [23],0.91
same,TGI (%),"[10]; Compound A 60 mg/kg PO QD, ABT-199 12.5 mg/kg PO QD, alone or combined",−0.4%
same,Mean Tumor Volume (mm^3) ± SEM,[10]; [24],"1,050.6 ± 221.4 mm^3"
same,T/C,[10]; [24],1.00
same,% BW Change (Day Maximum),"[11]; ABT-199 25 mg/kg PO QD 21 d, alone or with Compound A 60 mg/kg PO QD",−1.5 (14) %
same,Number of animals removed,[11]; [23],1
same,% BW Change (Day Maximum),"[11]; Compound A 60 mg/kg PO QD 21 d, ABT-199 12.5 mg/kg PO QD 21 d, alone or combined",4.6 (21) %
same,Number of animals removed,[11]; [24],0
same,TGI (%),[6],29.1%
same,Mean Tumor Volume (mm^3) ± SEM,[6],"1,048.9 ± 136.1 mm^3"
same,T/C,[6],0.71
same,% BW Change (Day Maximum),[8],−0.4 (11) %
same,Number of animals removed,[8],0
C=CC(=O)N1CCC[C@@H](n2nc(-c3ccc(Oc4ccccc4)cc3)c3c(N)ncnc32)C1 [ibrutinib],Number of animals removed,[12],0
same,TGI,[13],18%
same,TGI,[13]; listed as Ibrutinib,18.0%
same,TGI (%),"[14]; Compound A 60 mg/kg PO QD, ibrutinib 20 mg/kg PO QD",0.5%
same,Mean Tumor Volume (mm^3) ± SEM,[14]; [25],"1,085.2 ± 109.9 mm^3"
same,T/C,[14]; [25],1.00
